Test results published in DBAASP.
Values after ≈ are worked out from the molar mass of the structure shown. Each block holds one molecule with its values, some of them ahead of it.

Key:
Assay in all cases: ≥ marks a high value that may be exact or a test limit, other limits are often not marked, values filed in µg/mL are converted to µM
Escherichia coli W3110 = tested on: Escherichia coli W3110
[1] = tested on: Klebsiella pneumoniae ATCC BAA-1705
[2] = tested on: Candida albicans ATCC 10231
[3] = tested on: Enterococcus faecium E007
[4] = tested on: Staphylococcus aureus ATCC 29231
[5] = tested on: Staphylococcus aureus MW2
[6] = tested on: Acinetobacter baumannii ATCC 7978
[7] = tested on: Klebsiella pneumoniae WGLW2
[8] = tested on: Staphylococcus aureus VRSA1
[9] = tested on: Streptococcus pneumoniae ATCC 700677
[10] = tested on: Pseudomonas aeruginosa ATCC 27853
[11] = tested on: Staphylococcus aureus ATCC 43300
[12] = tested on: Bacillus megaterium ATCC 13632
[13] = tested on: Escherichia coli ATCC 25922
[14] = tested on: Cryptococcus neoformans ATCC 208821
[15] = tested on: Staphylococcus aureus ATCC 29213
[16] = tested on: Enterococcus faecium ATCC 35667
[17] = tested on: Candida albicans ATCC 90028
[18] = tested on: Bacillus subtilis ATCC 6051
[19] = tested on: Acinetobacter baumannii ATCC 19606
[20] = tested on: Candida tropicalis ATCC 750
[21] = tested on: Klebsiella pneumoniae ATCC 700603
Candida krusei ATCC 6258 = tested on: Candida krusei ATCC 6258
[22] = tested on: Serratia marcescens ATCC 14756
[23] = tested on: Klebsiella pneumoniae ATCC 10031
[24] = tested on: Mannheimia haemolytica 82-25
[25] = tested on: Enterococcus faecalis ATCC 29212
[26] = tested on: Escherichia coli ATCC 12795
[27] = tested on: Pseudomonas aeruginosa ATCC 27312
Acinetobacter baumannii = tested on: Acinetobacter baumannii
[28] = tested on: Salmonella enterica subsp. enterica serovar Typhimurium ATCC 13311
[29] = tested on: Shigella sonnei ATCC 11060
[30] = tested on: Listeria monocytogenes 10403s
[31] = tested on: Bacillus cereus ATCC 11778
[32] = tested on: Staphylococcus aureus ATCC 25923
[33] = tested on: Staphylococcus epidermidis ATCC 12228
Vibrio cholerae O1 Inaba = tested on: Vibrio cholerae O1 Inaba
Escherichia coli O157:H7 = tested on: Escherichia coli O157:H7
[34] = tested on: Streptococcus pyogenes M1T1 5448
Escherichia coli BL21 = tested on: Escherichia coli BL21
[35] = tested on: Pseudomonas aeruginosa PAO1
Escherichia coli TOP 10 = tested on: Escherichia coli TOP 10
[36] = tested on: Pseudomonas aeruginosa PA14
[37] = tested on: Klebsiella aerogenes ATCC 13048

Structure (SMILES): CC[C@H](C)[C@H](NC(=O)[C@H](CCCCN)NC(=O)[C@H](Cc1c[nH]c2ccccc12)NC(=O)[C@@H](N)CC(C)C)C(=O)NCC(=O)N[C@@H](Cc1c[nH]c2ccccc12)C(=O)N[C@@H](CCCCN)C(=O)N[C@H](C(=O)N[C@@H](Cc1c[nH]c2ccccc12)C(=O)N[C@@H](CCCN=C(N)N)C(=O)N[C@H](C(=O)NCC(=O)O)C(C)C)[C@@H](C)CC [LWKIGWKIWRVG]
MIC [2]: 83 µM (≈ 128 µg/mL) | MIC [3]: ≥ 83 µM | MIC [4]: ≥ 41.5 µM | MIC [5]: ≥ 41.5 µM | MIC [6]: 20.8 µM (≈ 32 µg/mL) | MIC [7]: ≥ 41.5 µM

Structure (SMILES): CC[C@H](C)[C@H](N)C(=O)N[C@@H](Cc1ccccc1)C(=O)NCC(=O)N[C@H](C(=O)N[C@H](C(=O)N[C@@H](CC(C)C)C(=O)NCC(=O)N[C@@H](Cc1ccccc1)C(=O)N[C@@H](CC(C)C)C(=O)N[C@@H](CCCCN)C(=O)NCC(=O)N[C@@H](CC(C)C)C(N)=O)[C@@H](C)CC)[C@@H](C)O [IFGTILGFLKGL]
MIC [8]: 12.5 µM (≈ 16 µg/mL) | MIC [9]: 25 µM (≈ 32 µg/mL) | MIC [10]: > 200 µM | MIC [11]: 12.5 µM (≈ 16 µg/mL) | MIC [12]: 12.5 µM (≈ 16 µg/mL) | MIC [13]: 100 µM (≈ 128 µg/mL) | MIC [14]: 25 µM (≈ 32 µg/mL) | MIC [15]: 12.5 µM (≈ 16 µg/mL) | MIC [16]: 25 µM (≈ 32 µg/mL) | MIC [17]: ≥ 100 µM | MIC [18]: 25 µM (≈ 32 µg/mL) | MIC [19]: 100 µM (≈ 128 µg/mL) | MIC [20]: 25 µM (≈ 32 µg/mL) | MIC [21]: 200 µM (≈ 256 µg/mL)

Structure (SMILES): CC(C)[C@H](N)C(=O)N[C@@H](CC(=O)O)C(=O)N[C@@H](CC(=O)O)C(=O)N[C@@H](CC(=O)O)C(=O)N[C@@H](CC(=O)O)C(=O)N[C@@H](CCCCN)C(=O)O [VDDDDK]
MIC (Candida krusei ATCC 6258): ≥ 2770 µM | MIC [22]: ≥ 3000 µM | MIC [23]: ≥ 850 µM | MIC [24]: ≥ 160 µM | MIC [25]: 2670 µM (≈ 1880 µg/mL) | MIC [26]: ≥ 900 µM | MIC [15]: 1080 µM (≈ 762 µg/mL) | MIC [27]: ≥ 1500 µM

Structure (SMILES): CC(C)C[C@H](NC(=O)[C@@H](N)CCCN=C(N)N)C(=O)N[C@@H](Cc1ccccc1)C(=O)N[C@@H](CCCN=C(N)N)C(=O)N[C@@H](CCCN=C(N)N)C(=O)N[C@H](C(=O)N[C@@H](CCCCN)C(=O)N[C@@H](CCCCN)C(=O)N[C@H](C(=O)N[C@@H](C)C(=O)NCC(N)=O)C(C)C)C(C)C [RLFRRVKKVAG]
MIC (Acinetobacter baumannii): ≥ 188 µM | MIC [10]: > 188 µM | MIC [28]: ≥ 188 µM | MIC [29]: ≥ 188 µM | MIC [30]: ≥ 188 µM | MIC [31]: ≥ 188 µM | MIC [32]: > 188 µM | MIC [25]: > 188 µM | MIC [33]: > 188 µM | MIC [13]: > 188 µM | MIC (Vibrio cholerae O1 Inaba): ≥ 188 µM | MIC (Escherichia coli O157:H7): ≥ 188 µM

Structure (SMILES): CC(C)C[C@H](NC(=O)[C@@H](N)[C@@H](C)O)C(=O)N1CCC[C@H]1C(=O)N[C@@H](CCC(=O)O)C(=O)N[C@@H](Cc1c[nH]c2ccccc12)C(=O)N[C@@H](CC(=O)O)C(=O)N[C@@H](CC(=O)O)C(=O)N[C@@H](CCCN=C(N)N)C(=O)N[C@@H](CCCN=C(N)N)C(=O)N[C@H](C(=O)N[C@H](C(=O)N[C@@H](CC(N)=O)C(=O)N[C@@H](CO)C(N)=O)C(C)C)C(C)C [TLPEWDDRRVVNS]
MIC (Escherichia coli TOP 10): ≥ 63 µM

Now from value to molecule:

MIC (Escherichia coli W3110): 8 µM (≈ 18.7 µg/mL) | MIC [1]: ≥ 64 µM
Structure (SMILES): CC[C@H](C)[C@H](NC(=O)[C@H](CCCN=C(N)N)NC(=O)[C@H](CCCN=C(N)N)NC(=O)[C@H](Cc1ccc(O)cc1)NC(=O)[C@H](CCCN=C(N)N)NC(=O)[C@H](CC(C)C)NC(=O)[C@H](CC(C)C)NC(=O)[C@H](CCCCN)NC(=O)[C@H](CC(C)C)NC(=O)CNC(=O)[C@H](Cc1c[nH]c2ccccc12)NC(=O)[C@H](CS)NC(=O)[C@H](C)NC(=O)[C@H](Cc1c[nH]c2ccccc12)NC(=O)[C@H](CCCN=C(N)N)NC(=O)[C@@H](N)Cc1c[nH]c2ccccc12)C(=O)N[C@@H](Cc1ccc(O)cc1)C(=O)O [WRWACWGLKLLRYRRIY]

MIC [34]: 0.5 µM (≈ 1.48 µg/mL) | MIC (Escherichia coli BL21): 1 µM (≈ 2.96 µg/mL) | MIC [35]: 32 µM (≈ 94.6 µg/mL)
Structure (SMILES): CC[C@H](C)[C@H](NC(=O)[C@H](CCCCN)NC(=O)[C@H](C)NC(=O)[C@H](CCCN=C(N)N)NC(=O)[C@H](CCCCN)NC(=O)CNC(=O)[C@H](CCCCN)NC(=O)[C@H](CCC(=O)O)NC(=O)[C@H](CCC(N)=O)NC(=O)[C@@H](NC(=O)[C@H](CCCCN)NC(=O)[C@H](CCCCN)NC(=O)[C@H](CCCCN)NC(=O)[C@H](CC(C)C)NC(=O)[C@H](CCCN=C(N)N)NC(=O)[C@H](CCC(N)=O)NC(=O)[C@H](Cc1ccccc1)NC(=O)[C@@H](NC(=O)[C@@H](NC(=O)[C@H](CCC(=O)O)NC(=O)[C@H](CCCCN)NC(=O)CNC(=O)[C@H](C)N)[C@@H](C)O)[C@@H](C)CC)[C@@H](C)CC)C(=O)N[C@@H](C)C(=O)N[C@@H](Cc1c[nH]c2ccccc12)C(=O)O [AGKETIFQRLKKKIQEKGKRAKIAW]

MIC [3]: ≥ 55 µM | MIC [4]: 3.44 µM (≈ 8 µg/mL) | MIC [6]: 27.5 µM (≈ 64 µg/mL) | MIC [36]: 13.8 µM (≈ 32 µg/mL) | MIC [37]: 13.8 µM (≈ 32 µg/mL)
Structure (SMILES): CC[C@H](C)[C@H](NC(=O)[C@H](CCCCN)NC(=O)[C@H](CCCCN)NC(=O)[C@H](Cc1c[nH]c2ccccc12)NC(=O)[C@@H](NC(=O)[C@H](CCCCN)NC(=O)[C@H](Cc1c[nH]c2ccccc12)NC(=O)[C@@H](N)CC(C)C)[C@@H](C)CC)C(=O)N[C@@H](Cc1c[nH]c2ccccc12)C(=O)N[C@@H](CCCN=C(N)N)C(=O)N[C@H](C(=O)N[C@@H](Cc1c[nH]c2ccccc12)C(=O)N[C@@H](CCCCN)C(=O)N[C@@H](CC(N)=O)C(=O)N[C@@H](Cc1c[nH]c2ccccc12)C(=O)N[C@@H](CCCN=C(N)N)C(=O)O)C(C)C [LWKIWKKIWRVWKNWR]
